Assay results: the NIST ThermoML archive (doi:10.1021/acs.jced.7b00709)
± gives the expanded uncertainty stated by the source.

Assay: xn = mol fraction of the nth substance listed
Settings: 298.2 K, 100 kPa, Liquid, Pycnometric method

Q: For `Cc1ccc(-c2ncc(Cl)cc2-c2ccc(S(C)(=O)=O)cc2)cn1` [etoricoxib] + CC(O)CO, which mass density (x1 = 0.06047) is on record?
A: 1059.7 ± 1.3 kg/m3

Q: With `Cc1ccc(-c2ncc(Cl)cc2-c2ccc(S(C)(=O)=O)cc2)cn1` [etoricoxib] + CO as the compound, how does the mass density (x1 = 0.03786) read?
A: 805 ± 0.9 kg/m3

Q: For `Cc1ccc(-c2ncc(Cl)cc2-c2ccc(S(C)(=O)=O)cc2)cn1` [etoricoxib] + O, which mass density (x1 = 1.58e-05) is on record?
A: 994.8 ± 1 kg/m3

Q: Which mass density (x1 = 0.05656) does the source give for `Cc1ccc(-c2ncc(Cl)cc2-c2ccc(S(C)(=O)=O)cc2)cn1` [etoricoxib] + OCC(O)CO here?
A: 1298 ± 1.6 kg/m3
